The source of these data is patent US12172983B2, “EGFR inhibitors” (Blueprint Medicines Corporation, priority 2019, dated 2024).

The structures appear in SMILES notation.

One assay deals with T1, EGFR (L858R T790M C797S) (Homo sapiens, UniProt P00533, C797S/L858R/T790M).
T1 construct: purchased SignalChem E10-122VG
Kind of assay: Biochemical EGFR inhibition assay (Caliper mobility shift), EGFR LRTMCS mutant. The conditions noted are these: inhibitory activity against EGFR LRTMCS mutant; apparent IC50; read-out: Ext Enz LRTMCS. The method in brief: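 Kinase reactions proceed at 25° C. to 10%–20% conversion of total peptide, are terminated with 35 mM EDTA, and the phosphopeptide is resolved from substrate by electrophoretic mobility shift. Apparent IC50 values come from plotting percent activity against log compound concentration.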

Assay [1] has as its system phosphorylation of EGFR (Tyr1068) in NCI-H1975 cell line that harbors the EGFR L858R T790M mutations. Kind of assay: NCI-H1975 pEGFR AlphaLISA assay. It counts as cell-based. The conditions noted are these: Homo sapiens, NCI-H1975, inhibition of phosphorylation of mutant EGFR in NCI-H1975 cells; 4-5 hours incubation; read-out: Ext pEGFR H1975. The method in brief: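 Phospho-EGFR Tyr1068 AlphaLISA readout: lysates taken from compound-treated H1975 cells (L858R T790M EGFR) after a 4-5 h exposure at 37 °C. Cells had adhered overnight beforehand. IC50 derived by plotting % pEGFR inhibition against log compound concentration.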

T1 sequence (P00533 25-1210 T790M/C797S/L858R): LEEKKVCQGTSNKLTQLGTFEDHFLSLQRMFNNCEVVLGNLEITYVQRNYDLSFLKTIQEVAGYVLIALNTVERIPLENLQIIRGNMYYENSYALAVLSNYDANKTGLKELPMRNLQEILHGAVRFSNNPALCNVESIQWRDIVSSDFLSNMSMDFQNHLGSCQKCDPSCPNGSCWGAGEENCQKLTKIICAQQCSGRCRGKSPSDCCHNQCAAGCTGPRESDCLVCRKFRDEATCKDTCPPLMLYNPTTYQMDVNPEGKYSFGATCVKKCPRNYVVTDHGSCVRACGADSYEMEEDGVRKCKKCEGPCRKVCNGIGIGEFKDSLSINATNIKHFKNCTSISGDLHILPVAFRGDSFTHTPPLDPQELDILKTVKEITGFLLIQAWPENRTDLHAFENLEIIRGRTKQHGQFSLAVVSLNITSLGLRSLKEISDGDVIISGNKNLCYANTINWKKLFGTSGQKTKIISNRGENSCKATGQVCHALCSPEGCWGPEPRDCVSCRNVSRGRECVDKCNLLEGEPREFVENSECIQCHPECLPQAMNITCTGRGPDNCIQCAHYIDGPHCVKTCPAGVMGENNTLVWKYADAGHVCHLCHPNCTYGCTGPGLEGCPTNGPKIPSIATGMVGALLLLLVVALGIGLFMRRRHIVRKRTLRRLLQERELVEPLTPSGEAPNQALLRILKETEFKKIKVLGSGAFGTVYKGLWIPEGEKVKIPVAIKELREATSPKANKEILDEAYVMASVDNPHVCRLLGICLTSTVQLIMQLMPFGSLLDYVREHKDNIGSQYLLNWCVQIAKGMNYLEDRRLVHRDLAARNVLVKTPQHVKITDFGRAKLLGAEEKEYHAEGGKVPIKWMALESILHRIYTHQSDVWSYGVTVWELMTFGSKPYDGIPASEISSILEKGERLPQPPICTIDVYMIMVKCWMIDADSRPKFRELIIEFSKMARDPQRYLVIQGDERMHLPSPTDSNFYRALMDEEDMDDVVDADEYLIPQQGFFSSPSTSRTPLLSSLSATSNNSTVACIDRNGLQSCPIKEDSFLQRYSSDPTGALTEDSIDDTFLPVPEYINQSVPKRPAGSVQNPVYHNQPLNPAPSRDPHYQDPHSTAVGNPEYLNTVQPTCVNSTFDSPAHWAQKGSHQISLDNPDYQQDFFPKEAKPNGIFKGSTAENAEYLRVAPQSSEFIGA

Consider `CC(C)c1ccc(N2CC(CS(C)(=O)=O)C2)c2cnc(Nc3ccnc(N4CC[C@](C)(O)[C@@](C)(F)C4)n3)cc12` (single isomer, unassigned) [Compound 114, (3S,4S)-3-fluoro-1-[4-({8-[3-(methanesulfonylmethyl)azetidin-1-yl]-5-(propan-2-yl)isoquinolin-3-yl}amino)pyrimidin-2-yl]-3,4-dimethylpiperidin-4-ol or (3R,4R)-3-fluoro-1-[4-({8-[3-(methanesulfonylmethyl)azetidin-1-yl]-5-(propan-2-yl)isoquinolin-3-yl}amino)pyrimidin-2-yl]-3,4-dimethylpiperidin-4-ol], for which the IC50 at EGFR (L858R T790M C797S) fell in the range of 30.1 to 100 nM; in assay [1], 30.1 to 50 nM.

With `CC[C@]1(F)CN(c2nccc(Nc3cc4c(C(C)C)ccc(N5CC(CS(C)(=O)=O)C5)c4cn3)n2)CC[C@H]1O` (single isomer, unassigned) [Compound 115, (3S,4R)-3-ethyl-3-fluoro-1-[4-({8-[3-(methanesulfonylmethyl)azetidin-1-yl]-5-(propan-2-yl)isoquinolin-3-yl}amino)pyrimidin-2-yl]piperidin-4-ol or (3R,4S)-3-ethyl-3-fluoro-1-[4-({8-[3-(methanesulfonylmethyl)azetidin-1-yl]-5-(propan-2-yl)isoquinolin-3-yl}amino)pyrimidin-2-yl]piperidin-4-ol], the figures for the IC50 (on EGFR (L858R T790M C797S); in assay [1]) were at most 15 nM and at most 10 nM, respectively.

With `Cc1cc(C(C)C)c2cc(Nc3ccnc(N4CC[C@@H](O)[C@@](C)(F)C4)n3)ncc2c1N1CC(CS(C)(=O)=O)C1` (single isomer, unassigned) [Compound 116], the IC50 at EGFR (L858R T790M C797S) was at most 15 nM; in assay [1], 10.1 to 20 nM.

For the compound `CC(C)c1ccc(N2C[C@@H](CS(C)(=O)=O)[C@H]2C)c2cnc(Nc3ccnc(N4CC[C@](C)(O)[C@H](F)C4)n3)cc12` (single isomer, unassigned) [Compound 121], the IC50 at EGFR (L858R T790M C797S) is 15.1 to 20 nM; in assay [1], at most 10 nM.

For `CCS(=O)(=O)CC1CN(c2ncc(C(C)C)c3cc(Nc4ccnc(N5CC[C@@H](O)[C@@](C)(F)C5)n4)ncc23)C1` (single isomer, unassigned) [Compound 124], the results for the IC50 (on EGFR (L858R T790M C797S); in assay [1]) were at most 15 nM and at most 10 nM, respectively.

On to `CC(C)c1cnc(N2CC([C@H](C)S(C)(=O)=O)C2)c2cnc(Nc3ccnc(N4CC[C@@H](O)[C@@](C)(F)C4)n3)cc12` (single isomer, unassigned) [Compound 126], for which the IC50 on EGFR (L858R T790M C797S) was at most 15 nM; in assay [1] it was at most 10 nM.

Turning to `CC(C)c1cnc(N2CC([C@@H](C)S(C)(=O)=O)C2)c2cnc(Nc3ccnc(N4CC[C@@H](O)[C@@](C)(F)C4)n3)cc12` (single isomer, unassigned) [Compound 127], the values for the IC50 (on EGFR (L858R T790M C797S); in assay [1]) were at most 15 nM and at most 10 nM, respectively.

As to `CC(C)c1ncc(N2C[C@H](CS(C)(=O)=O)[C@H]2C)c2cnc(Nc3ccnc(N4CC[C@@H](O)[C@@](C)(F)C4)n3)cc12` (single isomer, unassigned) [Compound 129], the IC50 at EGFR (L858R T790M C797S) was at most 15 nM; in assay [1], at most 10 nM.

Turning to `CC(C)c1ccc(N2C[C@H](CS(C)(=O)=O)[C@H]2C)c2cnc(Nc3cnnc(N4CC[C@@H](O)[C@@](C)(F)C4)n3)cc12` (single isomer, unassigned) [Compound 130], the IC50 at EGFR (L858R T790M C797S) was at most 15 nM; in assay [1], at most 10 nM.

Consider `CC(C)c1cnc(N2C[C@H](CS(C)(=O)=O)[C@H]2C)c2cnc(Nc3ccnc(N4CC[C@](C)(O)[C@H](F)C4)n3)cc12` (single isomer, unassigned) [Compound 135], for which the results for the IC50 (on EGFR (L858R T790M C797S); in assay [1]) were at most 15 nM and at most 10 nM, respectively.

For `CC(C)c1ncc(N2C[C@H](CS(C)(=O)=O)[C@H]2C)c2cnc(Nc3ccnc(N4CC[C@](C)(O)[C@H](F)C4)n3)cc12` (single isomer, unassigned) [Compound 136], the IC50 is at most 15 nM at EGFR (L858R T790M C797S) and 10.1 to 20 nM in assay [1].

As to `CC(C)c1cnc(N2C[C@H](CS(C)(=O)=O)[C@H]2C)c2cnc(Nc3ccnc(N4CC[C@@](C)(O)[C@@H](F)C4)n3)cc12` (single isomer, unassigned) [Compound 137], the results for the IC50 (at EGFR (L858R T790M C797S); in assay [1]) were at most 15 nM and at most 10 nM, respectively.

Regarding `CC(C)c1ncc(N2C[C@H](CS(C)(=O)=O)[C@H]2C)c2cnc(Nc3ccnc(N4CC[C@@](C)(O)[C@@H](F)C4)n3)cc12` (single isomer, unassigned) [Compound 138], the IC50 is at most 15 nM on EGFR (L858R T790M C797S) and at most 10 nM in assay [1].

Take `CC(C)c1ccc(N2C[C@H](CS(C)(=O)=O)[C@H]2C)c2cnc(Nc3cnnc(N4CC[C@](C)(O)[C@H](F)C4)n3)cc12` (single isomer, unassigned) [Compound 141]: the figures for the IC50 (on EGFR (L858R T790M C797S); in assay [1]) were at most 15 nM and 10.1 to 20 nM, respectively.

As for `CC(C)c1ccc(N2C[C@H](CS(C)(=O)=O)[C@H]2C)c2cnc(Nc3cnnc(N4CC[C@@](C)(O)[C@@H](F)C4)n3)cc12` (single isomer, unassigned) [Compound 142], the IC50 at EGFR (L858R T790M C797S) was at most 15 nM; in assay [1] it was 20.1 to 30 nM.

Regarding `CO[C@@H]1CCN(c2nccc(Nc3cc4c(C(C)C)cnc(N5CC(CS(C)(=O)=O)C5)c4cn3)n2)C[C@]1(C)F` (single isomer, unassigned) [Compound 143], the IC50 on EGFR (L858R T790M C797S) is at most 15 nM; in assay [1], at most 10 nM.

In the case of `CCOc1ccc(N2CC(CS(=O)(=O)CC)C2)c2cnc(Nc3ccnc(N4CC[C@@H](O)[C@@](C)(F)C4)n3)cc12` (single isomer, unassigned) [Compound 145], the results for the IC50 (on EGFR (L858R T790M C797S); in assay [1]) were 15.1 to 20 nM and 20.1 to 30 nM, respectively.

On to `CO[C@@H]1[C@H](O)CN(c2nccc(Nc3cc4c(C(C)C)ccc(N5CC(CS(C)(=O)=O)C5)c4cn3)n2)C[C@@H]1F` (single isomer, unassigned) [Compound 148, (3R,4R,5S)-5-fluoro-1-[4-({8-[3-(methanesulfonylmethyl)azetidin-1-yl]-5-(propan-2-yl)isoquinolin-3-yl}amino)pyrimidin-2-yl]-4-methoxypiperidin-3-ol or (3S,4S,5R)-5-fluoro-1-[4-({8-[3-(methanesulfonylmethyl)azetidin-1-yl]-5-(propan-2-yl)isoquinolin-3-yl}amino)pyrimidin-2-yl]-4-methoxypiperidin-3-ol], for which the results for the IC50 (on EGFR (L858R T790M C797S); in assay [1]) were at most 15 nM and at most 10 nM, respectively.

For `CO[C@@H]1CN(c2nccc(Nc3cc4c(C(C)C)ccc(N5CC(CS(C)(=O)=O)C5)c4cn3)n2)C[C@H](F)[C@@H]1O` (single isomer, unassigned) [Compound 149, (3S,4R,5R)-3-fluoro-1-[4-({8-[3-(methanesulfonylmethyl)azetidin-1-yl]-5-(propan-2-yl)isoquinolin-3-yl}amino)pyrimidin-2-yl]-5-methoxypiperidin-4-ol or (3R,4S,5S)-3-fluoro-1-[4-({8-[3-(methanesulfonylmethyl)azetidin-1-yl]-5-(propan-2-yl)isoquinolin-3-yl}amino)pyrimidin-2-yl]-5-methoxypiperidin-4-ol], the IC50 was 15.1 to 20 nM at EGFR (L858R T790M C797S) and 10.1 to 20 nM in assay [1].
